From PubChem BioAssay AID1259407 (Chemical Carcinogenesis Research Information System (CCRIS), 2018)
Active and inactive are the calls of the source. How the calls were made is not given here.

Test system: CCRIS mutagenicity, Ames/micronucleus/aberration tests
Experiment: CCRIS mutagenicity studies
Settings: Test System: AMES SALMONELLA TYPHIMURIUM
[1] = Strain/Indicator: TA97, Metabolic Activation: NONE, Method: PREINCUBATION
[2] = Strain/Indicator: TA98, Metabolic Activation: NONE, Method: PREINCUBATION
[3] = Strain/Indicator: TA100, Metabolic Activation: NONE, Method: PREINCUBATION
[4] = Strain/Indicator: TA1535, Metabolic Activation: NONE, Method: PREINCUBATION
[5] = Strain/Indicator: TA100, Metabolic Activation: NONE, Method: STANDARD PLATE
[6] = Strain/Indicator: TA100, Metabolic Activation: HAMSTER, LIVER, S-9, AROCLOR 1254 (10%), Method: PREINCUBATION
[7] = Strain/Indicator: TA100, Metabolic Activation: RAT, LIVER, S-9, AROCLOR 1254 (10%), Method: PREINCUBATION

For `N#CCCO`, the mutagenic call (Strain/Indicator: TA97, Metabolic Activation: HAMSTER, LIVER, S-9, AROCLOR 1254 (10 OR 30%), Method: PREINCUBATION) was “inactive; negative”, the mutagenic call [1] was “inactive; negative” and the mutagenic call (Strain/Indicator: TA97, Metabolic Activation: RAT, LIVER, S-9, AROCLOR 1254 (10 OR 30%), Method: PREINCUBATION) was “inactive; negative”. The mutagenic call (Strain/Indicator: TA98, Metabolic Activation: HAMSTER, LIVER, S-9, AROCLOR 1254 (10 OR 30%), Method: PREINCUBATION) was “inactive; negative”, the mutagenic call [2] was “inactive; negative” and the mutagenic call (Strain/Indicator: TA98, Metabolic Activation: RAT, LIVER, S-9, AROCLOR 1254 (10 OR 30%), Method: PREINCUBATION) was “inactive; negative”. The mutagenic call (Strain/Indicator: TA100, Metabolic Activation: HAMSTER, LIVER, S-9, AROCLOR 1254 (10 OR 30%), Method: PREINCUBATION) was “inactive; negative”, the mutagenic call [3] was “inactive; negative” and the mutagenic call (Strain/Indicator: TA100, Metabolic Activation: RAT, LIVER, S-9, AROCLOR 1254 (10 OR 30%), Method: PREINCUBATION) was “inactive; negative”. The mutagenic call (Strain/Indicator: TA1535, Metabolic Activation: HAMSTER, LIVER, S-9, AROCLOR 1254 (10 OR 30%), Method: PREINCUBATION) was “inactive; negative”, the mutagenic call [4] was “inactive; negative” and the mutagenic call (Strain/Indicator: TA1535, Metabolic Activation: RAT, LIVER, S-9, AROCLOR 1254 (10 OR 30%), Method: PREINCUBATION) was “inactive; negative”.
In the case of `S=C=NCCc1ccccc1`, the mutagenic call (Strain/Indicator: TA98, Metabolic Activation: NONE, Method: STANDARD PLATE) is reported as “inactive; negative”, the mutagenic call (Strain/Indicator: TA98, Metabolic Activation: RAT LIVER S-9, AROCLOR 1254, Method: STANDARD PLATE) is reported as “active; positive” and the mutagenic call [5] is reported as “inactive; negative”. For the same compound, the mutagenic call (Strain/Indicator: TA100, Metabolic Activation: RAT LIVER S-9, AROCLOR 1254, Method: STANDARD PLATE) was “inactive; negative”.
`BrCC1CO1` (stereo unspecified) was tested, and the mutagenic call [6] was “active; positive”, the mutagenic call [3] was “active; positive” and the mutagenic call [7] was “active; positive”. The mutagenic call (Strain/Indicator: TA1535, Metabolic Activation: HAMSTER, LIVER, S-9, AROCLOR 1254 (10%), Method: PREINCUBATION) was “active; positive”, the mutagenic call [4] was “active; positive” and the mutagenic call (Strain/Indicator: TA1535, Metabolic Activation: RAT, LIVER, S-9, AROCLOR 1254 (10%), Method: PREINCUBATION) was “active; positive”.
For `CC(C)(C)c1cc(O)ccc1O`, the mutagenic call (Strain/Indicator: TA97, Metabolic Activation: HAMSTER, LIVER, S-9, AROCLOR 1254 (10%), Method: PREINCUBATION) was “inactive; negative”, the mutagenic call (Strain/Indicator: TA97, Metabolic Activation: HAMSTER, LIVER, S-9, AROCLOR 1254 (30%), Method: PREINCUBATION) was “inactive; negative” and the mutagenic call [1] was “inactive; negative”. The mutagenic call (Strain/Indicator: TA97, Metabolic Activation: NONE, Method: STANDARD PLATE) was “inactive; negative”, the mutagenic call (Strain/Indicator: TA97, Metabolic Activation: RAT, LIVER, S-9, AROCLOR 1254 (10%), Method: PREINCUBATION) was “inactive; negative” and the mutagenic call (Strain/Indicator: TA97, Metabolic Activation: RAT, LIVER, S-9, AROCLOR 1254 (30%), Method: PREINCUBATION) was “inactive; negative”. The mutagenic call (Strain/Indicator: TA97, Metabolic Activation: RAT, LIVER, S-9, AROCLOR, Method: STANDARD PLATE) was “inactive; negative”, the mutagenic call (Strain/Indicator: TA97, Metabolic Activation: RAT, LIVER, S-9, PCB, Method: PREINCUBATION) was “inactive; negative” and the mutagenic call (Strain/Indicator: TA98, Metabolic Activation: HAMSTER, LIVER, S-9, AROCLOR 1254 (10%), Method: PREINCUBATION) was “inactive; negative”. The mutagenic call (Strain/Indicator: TA98, Metabolic Activation: HAMSTER, LIVER, S-9, AROCLOR 1254 (30%), Method: PREINCUBATION) was “inactive; negative”, the mutagenic call [2] was “inactive; negative” and the mutagenic call (Strain/Indicator: TA98, Metabolic Activation: RAT, LIVER, S-9, AROCLOR 1254 (10%), Method: PREINCUBATION) was “inactive; negative”. For the same compound, the mutagenic call (Strain/Indicator: TA98, Metabolic Activation: RAT, LIVER, S-9, AROCLOR 1254 (30%), Method: PREINCUBATION) was “inactive; negative”, the mutagenic call (Strain/Indicator: TA98, Metabolic Activation: RAT, LIVER, S-9, PCB, Method: PREINCUBATION) was “inactive; negative” and the mutagenic call [6] was “inactive; negative”. For the same compound, the mutagenic call (Strain/Indicator: TA100, Metabolic Activation: HAMSTER, LIVER, S-9, AROCLOR 1254 (30%), Method: PREINCUBATION) was “inactive; negative”, the mutagenic call [3] was “inactive; negative” and the mutagenic call [5] was “inactive; negative”. The mutagenic call [7] was “inactive; negative”, the mutagenic call (Strain/Indicator: TA100, Metabolic Activation: RAT, LIVER, S-9, AROCLOR 1254 (30%), Method: PREINCUBATION) was “inactive; negative” and the mutagenic call (Strain/Indicator: TA100, Metabolic Activation: RAT, LIVER, S-9, AROCLOR, Method: STANDARD PLATE) was “inactive; negative”. The mutagenic call (Strain/Indicator: TA100, Metabolic Activation: RAT, LIVER, S-9, PCB, Method: PREINCUBATION) was “inactive; negative”, the mutagenic call (Strain/Indicator: TA102, Metabolic Activation: HAMSTER, LIVER, S-9, AROCLOR 1254 (10%), Method: PREINCUBATION) was “inactive; negative” and the mutagenic call (Strain/Indicator: TA102, Metabolic Activation: HAMSTER, LIVER, S-9, AROCLOR 1254 (30%), Method: PREINCUBATION) was “inactive; negative”. The mutagenic call (Strain/Indicator: TA102, Metabolic Activation: NONE, Method: PREINCUBATION) was “inactive; negative”, the mutagenic call (Strain/Indicator: TA102, Metabolic Activation: NONE, Method: STANDARD PLATE) was “inactive; negative” and the mutagenic call (Strain/Indicator: TA102, Metabolic Activation: RAT, LIVER, S-9, AROCLOR 1254 (10%), Method: PREINCUBATION) was “inactive; negative”. For the same compound, the mutagenic call (Strain/Indicator: TA102, Metabolic Activation: RAT, LIVER, S-9, AROCLOR 1254 (30%), Method: PREINCUBATION) was “inactive; negative”, the mutagenic call (Strain/Indicator: TA102, Metabolic Activation: RAT, LIVER, S-9, AROCLOR, Method: STANDARD PLATE) was “inactive; negative” and the mutagenic call (Strain/Indicator: TA102, Metabolic Activation: RAT, LIVER, S-9, PCB, Method: PREINCUBATION) was “inactive; negative”. The mutagenic call (Strain/Indicator: TA104, Metabolic Activation: NONE, Method: PREINCUBATION) was “inactive; negative”, the mutagenic call (Strain/Indicator: TA104, Metabolic Activation: NONE, Method: STANDARD PLATE) was “inactive; negative” and the mutagenic call (Strain/Indicator: TA104, Metabolic Activation: RAT, LIVER, S-9, AROCLOR, Method: PREINCUBATION) was “inactive; negative”. The mutagenic call (Strain/Indicator: TA104, Metabolic Activation: RAT, LIVER, S-9, AROCLOR, Method: STANDARD PLATE) was “inactive; negative”.
